Test results reported in patent US11965039B2, “Compstatin analogues and their medical uses” (priority 2018, dated 2024).
Positions of bridges follow the written chain, without caps; N, C: chain ends. Non-standard residues stand in square brackets, D forms with d. Residues, ends and D or L forms follow the SMILES beside them. Sar = CNCC(=O)O

Columns and labels:
[1] = system: classical complement pathway; experiment: In vitro haemolysis assay (inhibition of classical complement pathway); assay type: cell-based, human; details: human serum, sensitized sheep red blood cells; Table 3, given as upper bounds; read-out: IC50, inhibition of hemolysis
Method in brief: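 Compound dilutions preincubated 15 min at room temperature with diluted human serum (titrated per batch for 70-90% maximal haemolysis), then antibody-sensitized sheep RBC (10^7/well) added for 30 min at 37 °C in Tris/casein buffer, pH 7.4. Stopped with EDTA; haemolysis read at 405 nm; IC50 by 4PL fit.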

[2] = Solubility test at 10 mg/mL (visual inspection and light scattering); assay type: physicochemical; details: for Solubility, Condition 1: Acetate pH 4; for Solubility, Condition 2: Acetate pH 5; for Solubility, Condition 3: Phosphate pH 6; for Solubility, Condition 4: Phosphate pH 7; for Solubility, Condition 5: Phosphate pH 7.5

Row | Structure (SMILES) | IC50 [1] | Solubility, Condition 1 [2] | Solubility, Condition 2 [2] | Solubility, Condition 3 [2] | Solubility, Condition 4 [2] | Solubility, Condition 5 [2]
1 | CC[C@H](C)[C@@H]1NC(=O)[C@@H](NC(=O)[C@@H](NC(=O)[C@H](CCC(=O)O)NC(=O)[C@H](CO)NC(=O)[C@H](CCC(=O)O)NC(C)=O)[C@@H](C)CC)CSSC[C@@H](C(=O)N[C@H](C(N)=O)[C@@H](C)O)NC(=O)[C@H](CCCNC(=N)N)NC(=O)[C@H](Cc2c[nH]cn2)NC(=O)[C@H](CCC(=O)O)NC(=O)CNC(=O)[C@H](Cc2c[nH]c3ccccc23)NC(=O)[C@H](CC(=O)O)NC(=O)[C@H](CCC(N)=O)NC(=O)[C@H](Cc2c[nH]c3ccccc23)NC1=O [Compound 31] (Ac-ESEICIWQDWGEHRCT-NH2; disulfide 5-15) | < 0.1 µM | + (“+” denotes solubility at the given condition, as determined by UV absorbance being less than 0.1 AU at 340 nm and the sample being clear when manually inspected) | + (“+” denotes solubility at the given condition, as determined by UV absorbance being less than 0.1 AU at 340 nm and the sample being clear when manually inspected) | + (“+” denotes solubility at the given condition, as determined by UV absorbance being less than 0.1 AU at 340 nm and the sample being clear when manually inspected) | + (“+” denotes solubility at the given condition, as determined by UV absorbance being less than 0.1 AU at 340 nm and the sample being clear when manually inspected) | + (“+” denotes solubility at the given condition, as determined by UV absorbance being less than 0.1 AU at 340 nm and the sample being clear when manually inspected)
2 | CC[C@H](C)[C@@H]1NC(=O)[C@@H](NC(=O)[C@@H](NC(=O)[C@H](CCC(=O)O)NC(=O)[C@H](CO)NC(C)=O)[C@@H](C)CC)CSSC[C@@H](C(=O)N[C@H](C(=O)N[C@@H](CCC(=O)O)C(=O)N[C@@H](C)C(N)=O)[C@@H](C)O)NC(=O)[C@H](CCCNC(=N)N)NC(=O)[C@H](Cc2c[nH]cn2)NC(=O)[C@H](CCC(=O)O)NC(=O)CNC(=O)[C@H](Cc2c[nH]c3ccccc23)NC(=O)[C@H](CC(=O)O)NC(=O)[C@H](CCC(N)=O)NC(=O)[C@H](Cc2c[nH]c3ccccc23)NC1=O [Compound 32] (Ac-SEICIWQDWGEHRCTEA-NH2; disulfide 4-14) | < 0.1 µM | − (“−” denotes lack of solubility at the given condition, as UV absorbance at 340 nm exceeds 0.1 AU and/or it is visibly turbid or contains particles) | − (“−” denotes lack of solubility at the given condition, as UV absorbance at 340 nm exceeds 0.1 AU and/or it is visibly turbid or contains particles) | − (“−” denotes lack of solubility at the given condition, as UV absorbance at 340 nm exceeds 0.1 AU and/or it is visibly turbid or contains particles) | + (“+” denotes solubility at the given condition, as determined by UV absorbance being less than 0.1 AU at 340 nm and the sample being clear when manually inspected) | + (“+” denotes solubility at the given condition, as determined by UV absorbance being less than 0.1 AU at 340 nm and the sample being clear when manually inspected)
3 | CC[C@H](C)[C@@H]1NC(=O)[C@@H](NC(=O)[C@@H](NC(=O)[C@H](CCC(=O)O)NC(C)=O)[C@@H](C)CC)CSSC[C@@H](C(=O)N[C@H](C(=O)N[C@@H](CCC(=O)O)C(N)=O)[C@@H](C)O)NC(=O)[C@H](CCCNC(=N)N)NC(=O)[C@H](Cc2c[nH]cn2)NC(=O)[C@H](CCC(=O)O)NC(=O)CNC(=O)[C@H](Cc2c[nH]c3ccccc23)NC(=O)[C@H](CC(=O)O)NC(=O)[C@H](CCC(N)=O)NC(=O)[C@H](Cc2c[nH]c3ccccc23)NC1=O [Compound 33] (Ac-EICIWQDWGEHRCTE-NH2; disulfide 3-13) | < 0.1 µM | − (“−” denotes lack of solubility at the given condition, as UV absorbance at 340 nm exceeds 0.1 AU and/or it is visibly turbid or contains particles) | − (“−” denotes lack of solubility at the given condition, as UV absorbance at 340 nm exceeds 0.1 AU and/or it is visibly turbid or contains particles) | + (“+” denotes solubility at the given condition, as determined by UV absorbance being less than 0.1 AU at 340 nm and the sample being clear when manually inspected) | + (“+” denotes solubility at the given condition, as determined by UV absorbance being less than 0.1 AU at 340 nm and the sample being clear when manually inspected) | + (“+” denotes solubility at the given condition, as determined by UV absorbance being less than 0.1 AU at 340 nm and the sample being clear when manually inspected)
4 | CC[C@H](C)[C@@H]1NC(=O)[C@@H](NC(=O)[C@@H](NC(=O)[C@H](CCC(=O)O)NC(=O)[C@H](CO)NC(=O)[C@H](CCC(=O)O)NC(C)=O)[C@@H](C)CC)CSSC[C@@H](C(=O)N[C@@H](CCC(=O)O)C(=O)NCC(=O)N[C@@H](CCC(=O)O)C(N)=O)NC(=O)[C@H](CCCNC(=N)N)NC(=O)[C@H](Cc2c[nH]cn2)NC(=O)[C@H](CCC(=O)O)NC(=O)CNC(=O)[C@H](Cc2c[nH]c3ccccc23)NC(=O)[C@H](CC(=O)O)NC(=O)[C@H](CCC(N)=O)NC(=O)[C@H](Cc2c[nH]c3ccccc23)NC1=O [Compound 36] (Ac-ESEICIWQDWGEHRCEGE-NH2; disulfide 5-15) | < 0.25 µM | − (“−” denotes lack of solubility at the given condition, as UV absorbance at 340 nm exceeds 0.1 AU and/or it is visibly turbid or contains particles) | − (“−” denotes lack of solubility at the given condition, as UV absorbance at 340 nm exceeds 0.1 AU and/or it is visibly turbid or contains particles) | − (“−” denotes lack of solubility at the given condition, as UV absorbance at 340 nm exceeds 0.1 AU and/or it is visibly turbid or contains particles) | + (“+” denotes solubility at the given condition, as determined by UV absorbance being less than 0.1 AU at 340 nm and the sample being clear when manually inspected) | + (“+” denotes solubility at the given condition, as determined by UV absorbance being less than 0.1 AU at 340 nm and the sample being clear when manually inspected)
5 | CC[C@H](C)[C@H](NC(=O)[C@H](C)NC(=O)[C@H](CO)NC(=O)CNC(C)=O)C(=O)N[C@H]1CSSC[C@@H](C(=O)N(C)CC(=O)N[C@@H](CCC(=O)O)C(N)=O)NC(=O)[C@H](CCCNC(=N)N)NC(=O)[C@H](Cc2c[nH]cn2)NC(=O)[C@H](CCC(=O)O)NC(=O)CNC(=O)[C@H](Cc2c[nH]c3ccccc23)NC(=O)[C@H](CC(=O)O)NC(=O)[C@H](CCC(N)=O)NC(=O)[C@H](Cc2c[nH]c3ccccc23)NC(=O)[C@H]([C@@H](C)CC)NC1=O [Compound 40] (Ac-GSAICIWQDWGEHRC[Sar]E-NH2; disulfide 5-15) | < 0.25 µM | − (“−” denotes lack of solubility at the given condition, as UV absorbance at 340 nm exceeds 0.1 AU and/or it is visibly turbid or contains particles) | − (“−” denotes lack of solubility at the given condition, as UV absorbance at 340 nm exceeds 0.1 AU and/or it is visibly turbid or contains particles) | + (“+” denotes solubility at the given condition, as determined by UV absorbance being less than 0.1 AU at 340 nm and the sample being clear when manually inspected) | + (“+” denotes solubility at the given condition, as determined by UV absorbance being less than 0.1 AU at 340 nm and the sample being clear when manually inspected) | + (“+” denotes solubility at the given condition, as determined by UV absorbance being less than 0.1 AU at 340 nm and the sample being clear when manually inspected)
6 | CC[C@H](C)[C@H](NC(=O)[C@H](C)NC(=O)[C@H](CO)NC(C)=O)C(=O)N[C@H]1CSSC[C@@H](C(=O)N(C)CC(=O)N[C@@H](CCC(=O)O)C(N)=O)NC(=O)[C@H](CCCNC(=N)N)NC(=O)[C@H](Cc2c[nH]cn2)NC(=O)[C@H](CCC(=O)O)NC(=O)CNC(=O)[C@H](Cc2c[nH]c3ccccc23)NC(=O)[C@H](CC(=O)O)NC(=O)[C@H](CCC(N)=O)NC(=O)[C@H](Cc2c[nH]c3ccccc23)NC(=O)[C@H]([C@@H](C)CC)NC1=O [Compound 41] (Ac-SAICIWQDWGEHRC[Sar]E-NH2; disulfide 4-14) | < 0.25 µM | − (“−” denotes lack of solubility at the given condition, as UV absorbance at 340 nm exceeds 0.1 AU and/or it is visibly turbid or contains particles) | − (“−” denotes lack of solubility at the given condition, as UV absorbance at 340 nm exceeds 0.1 AU and/or it is visibly turbid or contains particles) | + (“+” denotes solubility at the given condition, as determined by UV absorbance being less than 0.1 AU at 340 nm and the sample being clear when manually inspected) | + (“+” denotes solubility at the given condition, as determined by UV absorbance being less than 0.1 AU at 340 nm and the sample being clear when manually inspected) | + (“+” denotes solubility at the given condition, as determined by UV absorbance being less than 0.1 AU at 340 nm and the sample being clear when manually inspected)
